Assay results from patent publication US20240140895A1, “NOVEL AROMATIC MOLECULES” (XENIOPRO GmbH, priority 2018, published 2024).

What was measured:
Type in all cases: cell-based
[1] = system: TANOUE cells (human B cell leukemia cells); assay: Proliferation assay (alamarBlue) with TANOUE cells; details: Homo sapiens, B-cell, read-out: Activity Range: weighted arithmetic mean (AVEw) of normalized fluorescence intensity relative to DMSO basis level 1.0
From the text: (§1) The antiproliferative activities of compounds falling under formula (Ia), (Tb) and (Ic), respectively, were investigated on cells or cell lines originating from a disorder of the haematopoietic system, including the myeloid cell compartment and the lymphoid cell compartment (T-cells and B-cells), the neuroendocrine system, the cervix, the breast, the ovaries, the lung, the gastrointestinal tract, and the mucosal epithelium, as well as from the skin epithelium and from the muscle. To this end, HL-60 cells, NB-4 cells, HH cells, RPMI-8402 cells, TANOUE cells, TT cells, HeLa cells, MDA-MB-231 cells, FU-OV-1 cells, LOU-NH91 cells, 23132/87 cells, CAL-27 cells, BHY cells, SCC-25 cells, A-431 cells, human primary epidermal keratinocytes (HPEK), and C2C12 cells were seeded into 96-well plates suitable for fluorescence assays (CORNING #3598) at following initial cell numbers: 1000 cells per well for HL-60; 1000 cells per well for NB-4; 5000 cells per well for HH; 5000 cells per well for RPMI-8402; 1500 cells per well for TANOUE; 9000 cells per well for TT; 2000 cells per well for HeLa; 3000 cells per well for MDA-MB-231; 3000 cells per well for FU-OV-1; 4000 cells per well for LOU-NH91; 2000 cells per well for 23132/87; 2000 cells per well for CAL-27; 1500 cells per well for BHY; 1500 cells per well for SCC-25; 700 cells per well for A-431; 1000 cells per well for HPEK; 500 cells per well for C2-C12. The cells were treated with compounds at indicated final concentrations (diluted from the 1000× stock-solutions in DMSO to a final DMSO concentration of 0.1% v/v in H2O (Water For Injection, WFI, Fisherscientific #10378939)) or with the empty carrier DMSO at 0.1% v/v as control for 5 days. At day 5 after starting the treatments the cells were subjected to the alamarBlue® Proliferation Assay (Bio-Rad Serotec GmbH, BUF012B) according to the protocol of the manufacturer. The readout was taken with a multi-well plate-reader in the fluorescence mode with applying a filter for excitation at 560 nm (band width 10 nm) and for emission at 590 nm (band width 10 nm). Control treatments for growth inhibition with commercial compounds such as Methotrexate (MTREX) and Resveratrol (RES) were included on every plate. Some of the test compounds of the present invention were obtained and applied as their salts. According cases are indicated in the column “Specification” in Table 30 to Table 62 and by their sum formula in Table 63.
(§2) The assays were performed in duplicate or more replicates of independent single experiments each containing a six-fold replicate for every condition. For every individual plate, the measured fluorescence intensity values of the conditions with compound treatment were normalized against the corresponding equally weighted arithmetic mean of the fluorescence intensity values of the six DMSO treated control wells in order to obtain the relative values to a baseline level of 1.0.
(§3) Two independent outlier analyses were performed according to the methods by Peirce and Chauvenet (Ross, Journal of Engineering Technology 2003, 1-12). Outliers confirmed by at least one of the methods were excluded from the calculations but not more than one value out of six per compound within a single experiment. The weighted arithmetic mean (here abbreviated as AVEw) for each compound was calculated from the normalized values over all independent replicates of the single experiments comprising the six replicates each. The corresponding standard deviation for the weighted arithmetic mean was calculated according to the method described by Bronstein et al. (Bronstein, Semendjajew, Musiol, Muhlig, Taschenbuch der Mathematik, 5th edition 2001 (German), publisher: Verlag Harri Deutsch, Frankfurt am Main and Thun) and was combined with the Gauβ′ error propagation associated with the performed calculation for the normalization. The resulting standard deviation is herein referred to as “combined standard deviation”. […]

[2] = system: HPEKp cells (human epidermal keratinocyte progenitors, pooled); assay: Proliferation assay (alamarBlue) with HPEKp cells; details: compound at 10 μM, read-out: Activity Range: weighted arithmetic mean (AVEw) of normalized fluorescence intensity, relative to DMSO basis level 1.0
From the text: as §1, §2, §3

[3] = system: CAL-27 cells (human tongue squamous cell carcinoma cells); assay: Proliferation assay (alamarBlue) with CAL-27 cells; details: read-out: Activity Range: weighted arithmetic mean (AVEw) of normalized fluorescence intensity relative to DMSO basis level 1.0
From the text: as §1, §2, §3

[4] = system: MDA-MB-231 cells (human breast carcinoma cells); assay: Proliferation assay (alamarBlue) with MDA-MB-231 cells; details: Homo sapiens, read-out: Activity Range: weighted arithmetic mean (AVEw) of normalized fluorescence intensity relative to DMSO basis level 1.0
From the text: as §1, §2, §3

[5] = system: C2C12 cells (murine myoblast cells); assay: Proliferation assay (alamarBlue) with C2C12 cells; details: Mus musculus, compound at 20 μM, read-out: Activity Range: weighted arithmetic mean (AVEw) of normalized fluorescence intensity, relative to DMSO basis level 1.0
From the text: as §1, §2, §3

[6] = system: NB-4 cells (human acute promyelocytic leukemia cells); assay: Proliferation assay (alamarBlue) with NB-4 cells; details: Homo sapiens, Table 32, compound at 20 μM, read-out: Activity Range (AVEw, weighted arithmetic mean of normalized fluorescence intensity, DMSO = 1.0)
From the text: as §1, §2, §3

[7] = system: SCC-25 cells (human tongue squamous cell carcinoma cells); assay: Proliferation assay (alamarBlue) with SCC-25 cells; details: Homo sapiens, read-out: Activity Range: weighted arithmetic mean (AVEw) of normalized fluorescence intensity relative to DMSO basis level 1.0
From the text: as §1, §2, §3

[8] = system: RPMI-8402 cells (human T cell acute lymphoblastic leukemia cells); assay: Proliferation assay (alamarBlue) with RPMI-8402 cells; details: Homo sapiens, read-out: Activity Range: weighted arithmetic mean (AVEw) of normalized fluorescence intensity relative to DMSO basis level 1.0
From the text: as §1, §2, §3

[9] = system: HH cells (human cutaneous T-cell lymphoma cells); assay: Proliferation assay (alamarBlue) with HH cells; details: Table 34, compound at 20 μM, read-out: Activity Range (AVEw, weighted arithmetic mean of normalized fluorescence intensity, DMSO = 1.0)
From the text: as §1, §2, §3

[10] = system: A-431 cells (human epidermoid squamous cell carcinoma cells); assay: Proliferation assay (alamarBlue) with A-431 cells; details: Homo sapiens, 20 μM, read-out: Activity Range: weighted arithmetic mean (AVEw) of normalized fluorescence intensity relative to DMSO basis level 1.0
From the text: as §1, §2, §3

[11] = system: BHY cells (human oral squamous cell carcinoma cells); assay: Proliferation assay (alamarBlue) with BHY cells; details: read-out: Activity Range: weighted arithmetic mean (AVEw) of normalized fluorescence intensity relative to DMSO basis level 1.0
From the text: as §1, §2, §3

[12] = system: HL-60 cells (human acute myeloid leukemia cells); assay: Proliferation assay (alamarBlue) with HL-60 cells; details: Homo sapiens, Table 30, compound at 20 μM, read-out: Activity Range (AVEw, weighted arithmetic mean of normalized fluorescence intensity, DMSO = 1.0)
From the text: as §1, §2, §3

[13] = system: 23132/87 cells (human gastric adenocarcinoma cells); assay: Proliferation assay (alamarBlue) with 23132/87 cells; details: read-out: Activity Range: weighted arithmetic mean (AVEw) of normalized fluorescence intensity relative to DMSO basis level 1.0
From the text: as §1, §2, §3

COC1(c2ccc(Oc3ccc(C45CC6CC(CC(C6)C4)C5)cc3)cc2)CN(C)C1 [XPA-0238, 3-(4-(4-((3r,5r,7r)-adamantan-1-yl)phenoxy)phenyl)-3-methoxy-1-methylazetidine]
activity at 20 µM [1]: 0 to 20% | activity at 10 µM [2]: 40 to 60% | activity at 20 µM [3]: 0 to 20% | activity at 20 µM [4]: 0 to 20% | activity at 20 µM [5]: 0 to 20% | activity at 20 µM [6]: 0 to 20% | activity at 20 µM [7]: 0 to 20% | activity at 20 µM [8]: 0 to 20% | activity at 20 µM [9]: 0 to 20% | activity at 20 µM [10]: 0 to 20% | activity at 20 µM [11]: 0 to 20% | activity at 20 µM [12]: 0 to 20% | activity at 20 µM [13]: 0 to 20%

CCOC(=O)c1ccc(Oc2ccc(C3CCCCC3)cc2C2CO2)cc1 (stereo not shown) [XPA-1290, ethyl 4-(4-cyclohexyl-2-(oxiran-2-yl)phenoxy)benzoate]
activity at 20 µM [1]: 80 to 90% | activity at 10 µM [2]: 0 to 20% | activity at 20 µM [4]: 70 to 80%

COC1(c2ccc(Oc3ccc(C4CCCCC4)cc3)cc2)COC1 [XPA-0146, 3-(4-(4-cyclohexylphenoxy)phenyl)-3-methoxyoxetane]
activity at 20 µM [1]: 0 to 20% | activity at 10 µM [2]: 60 to 70% | activity at 20 µM [3]: 20 to 40% | activity at 20 µM [4]: 0 to 20% | activity at 20 µM [6]: 80 to 90% | activity at 20 µM [8]: 20 to 40% | activity at 20 µM [10]: 20 to 40% | activity at 20 µM [11]: 70 to 80% | activity at 20 µM [12]: 20 to 40% | activity at 20 µM [13]: 60 to 70%

CCOC(=O)c1ccc(Oc2ccc(C3CCOCC3)cc2)cc1 [XPA-0063, ethyl 4-(4-(tetrahydro-2H-pyran-4-yl)phenoxy)benzoate]
activity at 20 µM [1]: 80 to 90% | activity at 20 µM [4]: 80 to 90% | activity at 20 µM [8]: 80 to 90%

CCOC(=O)c1ccc(Oc2ccc(C3CCCCC3)cc2C2CC2)cc1 [XPA-1295, ethyl 4-(4-cyclohexyl-2-cyclopropylphenoxy)benzoate]
activity at 10 µM [2]: 70 to 80%

CN1CCC(c2ccc(Oc3ccc(C(=O)O)cc3)cc2)CC1 [XPA-0036, 4-(4-(1-methylpiperidin-4-yl)phenoxy)benzoic acid]
activity at 20 µM [4]: 80 to 90%

OCc1ccc(Oc2ccc(C3CCCCC3)cc2)cc1 [XPA-0006, (4-(4-cyclohexylphenoxy)phenyl)methanol]
activity at 10 µM [2]: 40 to 60% | activity at 20 µM [4]: 60 to 70% | activity at 20 µM [8]: 60 to 70% | activity at 20 µM [10]: 70 to 80% | activity at 20 µM [11]: 80 to 90% | activity at 20 µM [12]: 80 to 90%
